Assay results: patent US20250230193A1, “CYCLIC COMPOUND HAVING SELECTIVE KRAS INHIBITORY EFFECT ON HRAS AND NRAS” (CHUGAI SEIYAKU KABUSHIKI KAISHA, priority 2022, published 2025)
*1 amine or outer side, *2 acyl side, *3 side chain or, on linkers, in order; H or OH if unused. Where a SMILES comes first, the peptide text is derived from it. Bridges are numbered along the chain shown (N, C = ends). [ ]: non-standard residue; d: D form. The star is where a group is joined. hPhe(3,5-F2-4-CF3) = N[C@@H](CCc1cc(F)c(C(F)(F)F)c(F)c1)C(=O)O; NPrPhe(4-CF3) = CCCN[C@@H](Cc1ccc(C(F)(F)F)cc1)C(=O)O; X16 = O=C([C@@H](N[*:1])C1CC(F)(F)C1)[*:2]; NMeGly(cPent) = CN[C@H](C(=O)O)C1CCCC1; X9 = C[C@@](N[*:1])(C(=O)[*:2])C1CC1; X13 = CCC[C@](C)(N[*:1])C(=O)[*:2]; Nva(3-Et) = CCC(CC)[C@H](N)C(=O)O; αMeI = CC[C@H](C)[C@](C)(N)C(=O)O; αMeF = C[C@](N)(Cc1ccccc1)C(=O)O; NMeD = CN[C@@H](CC(=O)O)C(=O)O; Ac4c(3-oxa) = NC1(C(=O)O)COC1; NMeL = CN[C@@H](CC(C)C)C(=O)O; αMeL = CC(C)C[C@](C)(N)C(=O)O; αMeV = CC(C)[C@](C)(N)C(=O)O; αMeS = C[C@](N)(CO)C(=O)O; Morpholide = C1CN(*)CCO1; Ac5c = NC1(C(=O)O)CCCC1; Aze = O=C(O)[C@@H]1CCN1; Sar = CNCC(=O)O; Allyl = C=CC*

What was measured:
[1] = target: GDP-bound NRAS wild-type protein (Homo sapiens, UniProt P01111); experiment: Binding to NRAS by surface plasmon resonance (SPR), Single Cycle Kinetics; details: KD ratio NRAS/KRAS, SPR
[2] = target: GDP-bound HRAS wild-type protein (Homo sapiens, UniProt P01112); experiment: Binding to HRAS by surface plasmon resonance (SPR), Single Cycle Kinetics; details: KD ratio HRAS/KRAS, SPR
Sequence of GDP-bound HRAS wild-type protein (P01112 whole entry): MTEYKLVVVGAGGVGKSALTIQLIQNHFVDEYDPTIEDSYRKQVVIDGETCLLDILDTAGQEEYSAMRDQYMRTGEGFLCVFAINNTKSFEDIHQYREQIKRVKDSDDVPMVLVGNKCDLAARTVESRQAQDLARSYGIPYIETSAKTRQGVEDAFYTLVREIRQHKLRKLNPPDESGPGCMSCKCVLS

Sequence of GDP-bound NRAS wild-type protein (P01111 whole entry): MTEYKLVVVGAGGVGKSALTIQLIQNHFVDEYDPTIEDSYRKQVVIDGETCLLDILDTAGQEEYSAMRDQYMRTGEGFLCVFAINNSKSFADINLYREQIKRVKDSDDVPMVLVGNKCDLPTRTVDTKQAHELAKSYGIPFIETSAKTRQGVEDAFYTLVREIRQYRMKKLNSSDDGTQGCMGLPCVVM

Compound	NRAS/KRAS (ratio of KD value with respect to GDP-bound NRAS wild-type protein to KD value with respect to KRAS) [1]	HRAS/KRAS (ratio of KD value with respect to GDP-bound HRAS wild-type protein to KD value with respect to KRAS) [2]
CCCN1C(=O)CN(C)C(=O)CN(C)C(=O)[C@H](C(CC)CC)NC(=O)[C@H](CC(C)C)N(C)C(=O)C[C@@H](C(=O)N2CCOCC2)N(C)C(=O)[C@H](C2CCCC2)N(C)C(=O)C2(CCCC2)NC(=O)[C@@H]2CCCN2C(=O)[C@H](CCc2cc(F)c(C(F)(F)F)c(F)c2)NC(=O)CN(C)C(=O)[C@@H]1Cc1ccc(C(F)(F)F)cc1 [PP0768] ([NMeL][Nva(3-Et)][Sar][Sar][NPrPhe(4-CF3)][Sar][hPhe(3,5-F2-4-CF3)]P[Ac5c][NMeGly(cPent)][NMeD]-Morpholide; lactam N-11)	B (a compound having 3 or more and less than 10 is denoted as B)	C (A compound having a KD ratio of 0.1 or more and less than 3 is denoted as C)
CCCN1C(=O)CN(C)C(=O)CN(C)C(=O)[C@H](C2CC(F)(F)C2)NC(=O)[C@H](CC(C)C)N(C)C(=O)C[C@@H](C(=O)N2CCOCC2)N(C)C(=O)[C@H](C2CCCC2)N(C)C(=O)C2(CCCC2)NC(=O)[C@@H]2CCCN2C(=O)[C@H](CCc2cc(F)c(C(F)(F)F)c(F)c2)NC(=O)CN(C)C(=O)[C@@H]1Cc1ccc(C(F)(F)F)cc1 [PP0769] ([NMeL][X16][Sar][Sar][NPrPhe(4-CF3)][Sar][hPhe(3,5-F2-4-CF3)]P[Ac5c][NMeGly(cPent)][NMeD]-Morpholide; lactam N-11)	B (a compound having 3 or more and less than 10 is denoted as B)	C (A compound having a KD ratio of 0.1 or more and less than 3 is denoted as C)
CCCN1C(=O)CN(C)C(=O)[C@@H]2CCN2C(=O)[C@H]([C@@H](C)CC)NC(=O)[C@H](CC(C)C)N(C)C(=O)C[C@@H](C(=O)N2CCOCC2)N(C)C(=O)[C@H](C2CCCC2)N(C)C(=O)C2(CCCC2)NC(=O)[C@@H]2CCCN2C(=O)[C@H](CCc2cc(F)c(C(F)(F)F)c(F)c2)NC(=O)CN(C)C(=O)[C@@H]1Cc1ccc(C(F)(F)F)cc1 [PP0770] ([NMeL]I[Aze][Sar][NPrPhe(4-CF3)][Sar][hPhe(3,5-F2-4-CF3)]P[Ac5c][NMeGly(cPent)][NMeD]-Morpholide; lactam N-11)	B (a compound having 3 or more and less than 10 is denoted as B)	B (a compound having 3 or more and less than 10 is denoted as B)
CCCN1C(=O)CN(C)C(=O)[C@@H]2CCN2C(=O)[C@H]([C@@H](C)CC)NC(=O)[C@H](CC(C)C)N(C)C(=O)C[C@@H](C(=O)N2CCOCC2)N(C)C(=O)[C@H](C2CCCC2)N(C)C(=O)[C@](C)(C2CC2)NC(=O)[C@@H]2CCCN2C(=O)[C@H](CCc2cc(F)c(C(F)(F)F)c(F)c2)NC(=O)CN(C)C(=O)[C@@H]1Cc1ccc(C(F)(F)F)cc1 [PP0772] ([NMeL]I[Aze][Sar][NPrPhe(4-CF3)][Sar][hPhe(3,5-F2-4-CF3)]P[X9][NMeGly(cPent)][NMeD]-Morpholide; lactam N-11)	B (a compound having 3 or more and less than 10 is denoted as B)	B (a compound having 3 or more and less than 10 is denoted as B)
CCCN1C(=O)CN(C)C(=O)[C@@H]2CCN2C(=O)[C@H]([C@@H](C)CC)NC(=O)[C@H](CC(C)C)N(C)C(=O)C[C@@H](C(=O)N2CCOCC2)N(C)C(=O)[C@H](C2CCCC2)N(C)C(=O)[C@](C)(C(C)C)NC(=O)[C@@H]2CCCN2C(=O)[C@H](CCc2cc(F)c(C(F)(F)F)c(F)c2)NC(=O)CN(C)C(=O)[C@@H]1Cc1ccc(C(F)(F)F)cc1 [PP0773] ([NMeL]I[Aze][Sar][NPrPhe(4-CF3)][Sar][hPhe(3,5-F2-4-CF3)]P[αMeV][NMeGly(cPent)][NMeD]-Morpholide; lactam N-11)	B (a compound having 3 or more and less than 10 is denoted as B)	B (a compound having 3 or more and less than 10 is denoted as B)
CCCN1C(=O)CN(C)C(=O)[C@@H]2CCN2C(=O)[C@H]([C@@H](C)CC)NC(=O)[C@H](CC(C)C)N(C)C(=O)C[C@@H](C(=O)N2CCOCC2)N(C)C(=O)[C@H](C2CCCC2)N(C)C(=O)[C@](C)([C@@H](C)CC)NC(=O)[C@@H]2CCCN2C(=O)[C@H](CCc2cc(F)c(C(F)(F)F)c(F)c2)NC(=O)CN(C)C(=O)[C@@H]1Cc1ccc(C(F)(F)F)cc1 [PP0774] ([NMeL]I[Aze][Sar][NPrPhe(4-CF3)][Sar][hPhe(3,5-F2-4-CF3)]P[αMeI][NMeGly(cPent)][NMeD]-Morpholide; lactam N-11)	B (a compound having 3 or more and less than 10 is denoted as B)	B (a compound having 3 or more and less than 10 is denoted as B)
CCCN1C(=O)CN(C)C(=O)[C@@H]2CCN2C(=O)[C@H]([C@@H](C)CC)NC(=O)[C@H](CC(C)C)N(C)C(=O)C[C@@H](C(=O)N2CCOCC2)N(C)C(=O)[C@H](C2CCCC2)N(C)C(=O)[C@](C)(CCC)NC(=O)[C@@H]2CCCN2C(=O)[C@H](CCc2cc(F)c(C(F)(F)F)c(F)c2)NC(=O)CN(C)C(=O)[C@@H]1Cc1ccc(C(F)(F)F)cc1 [PP0775] ([NMeL]I[Aze][Sar][NPrPhe(4-CF3)][Sar][hPhe(3,5-F2-4-CF3)]P[X13][NMeGly(cPent)][NMeD]-Morpholide; lactam N-11)	B (a compound having 3 or more and less than 10 is denoted as B)	B (a compound having 3 or more and less than 10 is denoted as B)
CCCN1C(=O)CN(C)C(=O)[C@@H]2CCN2C(=O)[C@H]([C@@H](C)CC)NC(=O)[C@H](CC(C)C)N(C)C(=O)C[C@@H](C(=O)N2CCOCC2)N(C)C(=O)[C@H](C2CCCC2)N(C)C(=O)[C@](C)(CC(C)C)NC(=O)[C@@H]2CCCN2C(=O)[C@H](CCc2cc(F)c(C(F)(F)F)c(F)c2)NC(=O)CN(C)C(=O)[C@@H]1Cc1ccc(C(F)(F)F)cc1 [PP0776] ([NMeL]I[Aze][Sar][NPrPhe(4-CF3)][Sar][hPhe(3,5-F2-4-CF3)]P[αMeL][NMeGly(cPent)][NMeD]-Morpholide; lactam N-11)	B (a compound having 3 or more and less than 10 is denoted as B)	B (a compound having 3 or more and less than 10 is denoted as B)
CCCN1C(=O)CN(C)C(=O)[C@@H]2CCN2C(=O)[C@H]([C@@H](C)CC)NC(=O)[C@H](CC(C)C)N(C)C(=O)C[C@@H](C(=O)N2CCOCC2)N(C)C(=O)[C@H](C2CCCC2)N(C)C(=O)[C@](C)(Cc2ccccc2)NC(=O)[C@@H]2CCCN2C(=O)[C@H](CCc2cc(F)c(C(F)(F)F)c(F)c2)NC(=O)CN(C)C(=O)[C@@H]1Cc1ccc(C(F)(F)F)cc1 [PP0778] ([NMeL]I[Aze][Sar][NPrPhe(4-CF3)][Sar][hPhe(3,5-F2-4-CF3)]P[αMeF][NMeGly(cPent)][NMeD]-Morpholide; lactam N-11)	B (a compound having 3 or more and less than 10 is denoted as B)	B (a compound having 3 or more and less than 10 is denoted as B)
CCCN1C(=O)CN(C)C(=O)[C@@H]2CCN2C(=O)[C@H]([C@@H](C)CC)NC(=O)[C@H](CC(C)C)N(C)C(=O)C[C@@H](C(=O)N2CCOCC2)N(C)C(=O)[C@H](C2CCCC2)N(C)C(=O)[C@](C)(COC)NC(=O)[C@@H]2CCCN2C(=O)[C@H](CCc2cc(F)c(C(F)(F)F)c(F)c2)NC(=O)CN(C)C(=O)[C@@H]1Cc1ccc(C(F)(F)F)cc1 [PP0779] ([NMeL]I[Aze][Sar][NPrPhe(4-CF3)][Sar][hPhe(3,5-F2-4-CF3)]P[αMeS](Me)[NMeGly(cPent)][NMeD]-Morpholide; lactam N-11)	B (a compound having 3 or more and less than 10 is denoted as B)	B (a compound having 3 or more and less than 10 is denoted as B)
C=CCOC[C@]1(C)NC(=O)[C@@H]2CCCN2C(=O)[C@H](CCc2cc(F)c(C(F)(F)F)c(F)c2)NC(=O)CN(C)C(=O)[C@H](Cc2ccc(C(F)(F)F)cc2)N(CCC)C(=O)CN(C)C(=O)[C@@H]2CCN2C(=O)[C@H]([C@@H](C)CC)NC(=O)[C@H](CC(C)C)N(C)C(=O)C[C@@H](C(=O)N2CCOCC2)N(C)C(=O)[C@H](C2CCCC2)N(C)C1=O [PP0780] ([NMeL]I[Aze][Sar][NPrPhe(4-CF3)][Sar][hPhe(3,5-F2-4-CF3)]P[αMeS](Allyl)[NMeGly(cPent)][NMeD]-Morpholide; lactam N-11)	B (a compound having 3 or more and less than 10 is denoted as B)	B (a compound having 3 or more and less than 10 is denoted as B)
CCCN1C(=O)CN(C)C(=O)[C@@H]2CCN2C(=O)[C@H]([C@@H](C)CC)NC(=O)[C@H](CC(C)C)N(C)C(=O)C[C@@H](C(=O)N2CCOCC2)N(C)C(=O)[C@H](C2CCCC2)N(C)C(=O)C2(COC2)NC(=O)[C@@H]2CCCN2C(=O)[C@H](CCc2cc(F)c(C(F)(F)F)c(F)c2)NC(=O)CN(C)C(=O)[C@@H]1Cc1ccc(C(F)(F)F)cc1 [PP0782] ([NMeL]I[Aze][Sar][NPrPhe(4-CF3)][Sar][hPhe(3,5-F2-4-CF3)]P[Ac4c(3-oxa)][NMeGly(cPent)][NMeD]-Morpholide; lactam N-11)	B (a compound having 3 or more and less than 10 is denoted as B)	B (a compound having 3 or more and less than 10 is denoted as B)
